In article PMC10671050, “Alkyl Derivatives of Perylene Photosensitizing Antivirals: Towards Understanding the Influence of Lipophilicity” (International Journal of Molecular Sciences, 2023):
≈ marks a conversion by molar mass, not a printed value. Entries after “also recorded” stand apart in the source; their conditions may differ. Where two headings read alike, the source gives them in different places.

Tests used:
HSV-1, strain MacIntyre [1] = assay: HSV-1 titer reduction assay in Vero cells; conditions: 48 h; for viral replication and spread in HSV-1-infected Vero cell culture: inside cell culture (Figure 6C)
VSV Indiana strain = assay: microbe, parasite or virus in culture; format: cell-based, vesicular stomatitis Indiana virus; conditions: Vesicular stomatitis virus, HEK-293T, 1 h, read-out: VSV, EC50
[2] = Solubilization in 15% DMSO in water; conditions: for solubility: aqueous with cosolvent or surfactant or cyclodextrin, kinetic from dmso stock
Procedure: To perform this measurement, the compound was dissolved in DMSO and then diluted with water to achieve a solution containing 15% DMSO. The solution was centrifuged, and the resulting supernatant was lyophilized (evaporated) to dryness. Subsequently, the dry residue was dissolved in DMSO, and the concentration of the compound dissolved in DMSO was determined spectrophotometrically.
The mixtures were then centrifuged at 20,000 rcf for 5 min; 500 μL of the supernatant were collected and lyophilized; 76 µL of DMSO were added to the dry residue, and the absorbance was measured at the maximum absorption wavelength for compounds in solutions diluted 200 times with methanol. The data obtained were recalculated according to the law of dilutions and Beer’s law to obtain the initial concentrations of the compounds solubilized in 15% DMSO in water.

[3] = format: physicochemical; conditions: methanol, DPBF trap, 450–470 nm, relative to riboflavin
HSV-1, strain MacIntyre [4] = assay: Photodynamic inactivation of HSV-1 (virus treated with compound, plaque assay); format: cell-based, herpes simplex virus-1; conditions: for HSV-1-inactivating effect after blue light irradiation: 10 µM
[5] = Cytotoxicity assay in Vero cells (Cell Counting Kit-8); format: cell-based; conditions: African green monkey, 48 h incubation, compared to controls (DMSO-treated cells)
Procedure: Vero cells were cultured for 24 h in 96-well plates to form a confluent monolayer and then were treated with the tested compounds at concentrations of 50 µM. After 48 h of cultivation in the dark at 37 °C under 5% CO2, the cell culture medium was aspirated. The potential cytotoxicity of the tested derivatives was determined based on cell viability using Cell Counting Kit-8 (Dojindo Molecular Technologies, Munich, Germany) according to the manufacturer’s instructions.

Vero cells = assay: Light-induced cytotoxicity (photocytotoxicity) in Vero cells; format: cell-based, African Green Monkey; conditions: blue light 10 min vs daylight, 0–10 µM, 48 h
Procedure: (§1) Subsequently, cells treated with the compounds were irradiated with LEDs (465–480 nm, 30 mW/cm^2) for 10 min at RT. As a negative control, compound-treated cells were incubated for 10 min in daylight at RT. Then, both the irradiated and non-irradiated cell monolayers were incubated at 37 °C in the dark for 48 h. Subsequently, the cell culture medium was aspirated and the cytotoxicity of the tested perylene derivatives was determined based on cell viability using Cell Counting Kit-8 (Dojindo Molecular Technologies, Munich, Germany) according to the manufacturer’s instructions. Note: all manipulation with samples was performed in daylight (Figure 7K).

[6] = as above; format: cell-based, African Green Monkey; conditions: African green monkey, Vero cells; blue light 465–480 nm, 10 min, then 48 h; read-out: cell viability of Vero cells after irradiation
Procedure: as §1

[7] = 10 µM, viral titer in medium supernatant
[8] = Human alphaherpesvirus 1, 10 min, HSV-1 10^4 PFU/mL, 10 min in daylight, plaque assay, read-out: EC50 (µM) in Daylight
[9] = Human alphaherpesvirus 1, 10 min, HSV-1 10^4 PFU/mL, blue light 465–480 nm, 30 mW/cm^2, 10 min, plaque assay, read-out: EC50 (µM) under Blue Light

Row | Compound | anti-HSV-1 activity in Vero cells (HSV-1, strain MacIntyre [1]; [7]) | EC50 (VSV Indiana strain) | solubility [2] | 1O2 Quantum Yield [3] | also measured
1 | CCCCc1ccc2c3cccc4c(C#Cc5cn([C@@H]6O[C@H](CO)[C@@H](O)[C@H]6O)c(=O)[nH]c5=O)ccc(c5cccc1c52)c43 [Compound 10a, 5-[9(10)-Butylperylen-3-ylethynyl]-ribo-uridine] | completely inhibited viral replication; also recorded: higher antiviral potency compared to acyclovir | 10 to 200 µM | 0.02 µM (≈ 0.0115 µg/mL) | 23.1 ± 2.2% | viral replication and spread in HSV-1-infected Vero cell culture (HSV-1, strain MacIntyre [1]; 10 µM): did not suppress viral replication and spread; solubility in 15% DMSO in water ([2]; 15% DMSO in water): lower solubility; Decrease in EC50 (Fold) (HSV-1, strain MacIntyre [4]): 20.3 fold; EC50 (HSV-1, strain MacIntyre [4]; [8]): 2.18 µM; EC50 (HSV-1, strain MacIntyre [4]; [9]): 0.107 µM; viability at 48 h, 10 µM [5]: ~80%
2 | Oc1cccc(C#Cc2ccc3c4cccc5cccc(c6cccc2c63)c54)c1 [Compound 13, reference compound] | – | 10 to 200 µM | – | – | viability at 48 h, 10 µM [5]: 109 to 122%
3 | CCCCCCCCc1ccc2c3cccc4c(-c5ccc(C(=O)O)s5)ccc(c5cccc1c25)c43 [Compound 15b, 5-[9(10)-Octylperylen-3-yl]thiophene-2-carboxylic acid] | complete inhibition; also recorded: higher antiviral potency compared to acyclovir | 10 to 200 µM | 0.1 µM (≈ 0.0491 µg/mL) | 72.9 ± 5.6% | viral replication and spread in HSV-1-infected Vero cell culture (HSV-1, strain MacIntyre [1]; 10 µM): did not suppress viral replication and spread; Decrease in EC50 (Fold) (HSV-1, strain MacIntyre [4]): >3.5 fold; fold less active than non-alkylated counterparts (12, 15) (HSV-1, strain MacIntyre [4]): ~3 fold; HSV-1-inactivating effect in daylight (HSV-1, strain MacIntyre [4]; 0–10 µM, daylight): only partial or no viral inactivation; also recorded: no virus-inactivating effect; EC50 (HSV-1, strain MacIntyre [4]; [8]): > 10 µM; EC50 (HSV-1, strain MacIntyre [4]; [9]): 2.89 µM
4 | O=C(O)c1ccc(-c2ccc3c4cccc5cccc(c6cccc2c63)c54)s1 [Compound 15, 5-(perylene-3-yl)thiophenecarboxylic acid, reference compound] | – | < 10 µM | – | 73.2 ± 8.9% | EC50 (HSV-1, strain MacIntyre [4]; [9]): 0.038 µM
5 | CCCCCCCCc1ccc2c3cccc4c(C#Cc5cn([C@H]6C[C@H](O)[C@@H](CO)O6)c(=O)[nH]c5=O)ccc(c5cccc1c52)c43 [Compound 11b, 5-[9(10)-Octylperylen-3-ylethynyl]-deoxy-uridine] | only moderately active | 10 to 200 µM | 0.67 µM (≈ 0.412 µg/mL) | 21.0 ± 2.0% | viability at 48 h, 10 µM [5]: ~120%
6 | Oc1ccc(C#Cc2ccc3c4cccc5cccc(c6cccc2c63)c54)cc1Br [Compound 14, reference compound] | – | 10 to 200 µM | – | – | viability at 48 h, 10 µM [5]: 109 to 122%
7 | CCCCCCCCc1ccc2c3cccc4c(C#Cc5cn([C@@H]6O[C@H](CO)[C@@H](O)[C@@H]6O)c(=O)[nH]c5=O)ccc(c5cccc1c52)c43 [Compound 9b, 5-[9(10)-Octylperylen-3-ylethynyl]-arabino-uridine] | only moderately active | 10 to 200 µM | 0.38 µM (≈ 0.24 µg/mL) | 18.6 ± 2.3% | photocytotoxicity to Vero cells (Vero cells): did not increase the cytotoxicity; viability at 48 h [6]: 115 to 128%; times less effectively dissolved than deoxy- and ribo- analogs (10b, 11b) ([2]; 15% DMSO in water): approximately 1.5 times; HSV-1-inactivating effect after blue light irradiation (HSV-1, strain MacIntyre [4]): complete inactivation of HSV-1
8 | O=c1[nH]c(=O)n([C@@H]2O[C@H](CO)[C@@H](O)[C@@H]2O)cc1C#Cc1ccc2c3cccc4cccc(c5cccc1c52)c43 [Compound 9, reference compound] | – | < 10 µM | – | 40.1 ± 4.0% | –
9 | CCCCCCCCCCCCc1ccc2c3cccc4c(C#Cc5cn([C@@H]6O[C@H](CO)[C@@H](O)[C@H]6O)c(=O)[nH]c5=O)ccc(c5cccc1c52)c43 [Compound 10c, 5-[9(10)-Dodecylperylen-3-ylethynyl]-ribo-uridine] | completely inactive | > 200 µM | 0.24 µM (≈ 0.165 µg/mL) | 28.7 ± 8.6% | –
10 | CCCCCCCCc1ccc2c3cccc4c(C#Cc5cn([C@@H]6O[C@H](CO)[C@@H](O)[C@H]6O)c(=O)[nH]c5=O)ccc(c5cccc1c52)c43 [Compound 10b, 5-[9(10)-Octylperylen-3-ylethynyl]-ribo-uridine] | only moderately active | > 200 µM | 0.59 µM (≈ 0.372 µg/mL) | 19.2 ± 1.5% | HSV-1-inactivating effect after blue light irradiation (HSV-1, strain MacIntyre [4]): complete inactivation of HSV-1
11 | CCCCCCCCCCCCc1ccc2c3cccc4c(-c5ccc(C(=O)O)s5)ccc(c5cccc1c25)c43 [Compound 15c, 5-[9(10)-Dodecylperylen-3-yl]thiophene-2-carboxylic acid] | no anti-HSV-1 activity | 10 to 200 µM | 0.05 µM (≈ 0.0273 µg/mL) | 79.8 ± 8.9% | HSV-1-inactivating effect after blue light irradiation (HSV-1, strain MacIntyre [4]): no virus-inactivating effect
12 | O=c1[nH]c(=O)n([C@@H]2O[C@H](CO)[C@@H](O)[C@H]2O)cc1C#Cc1ccc2c3cccc4cccc(c5cccc1c52)c43 [Compound 10, reference compound] | – | < 10 µM | – | 33.6 ± 1.2% | EC50 (HSV-1, strain MacIntyre [4]; [9]): 0.116 µM
13 | O=c1[nH]c(=O)n([C@H]2C[C@H](O)[C@@H](CO)O2)cc1C#Cc1ccc2c3cccc4cccc(c5cccc1c52)c43 [Compound 11, reference compound] | – | < 10 µM | – | 38.6 ± 0.8% | –
14 | CCCCc1ccc2c3cccc4c(-c5ccc(C(=O)O)s5)ccc(c5cccc1c25)c43 [Compound 15a, 5-[9(10)-Butylperylen-3-yl]thiophene-2-carboxylic acid] | complete inhibition; also recorded: higher antiviral potency compared to acyclovir | 0.2 ± 0.2 µM | 0.11 µM (≈ 0.0478 µg/mL) | 91.6 ± 0.2% | viral replication and spread in HSV-1-infected Vero cell culture (HSV-1, strain MacIntyre [1]; 10 µM): did not suppress viral replication and spread; Decrease in EC50 (Fold) (HSV-1, strain MacIntyre [4]): 5.4 fold; fold less active than non-alkylated counterparts (12, 15) (HSV-1, strain MacIntyre [4]): ~3 fold; EC50 (HSV-1, strain MacIntyre [4]; HSV-1 10^4 PFU/mL, 10 min in daylight, plaque assay, read-out: EC50 (µM) in Daylight): 0.608 µM; EC50 (HSV-1, strain MacIntyre [4]; HSV-1 10^4 PFU/mL, blue light 465–480 nm, 30 mW/cm^2, 10 min, plaque assay, read-out: EC50 (µM) under Blue Light): 0.112 µM; EC50 (HSV-1, strain MacIntyre [4]; [8]): 0.61 µM; EC50 (HSV-1, strain MacIntyre [4]; [9]): ~0.1 µM
15 | Oc1ccc(C#Cc2ccc3c4cccc5cccc(c6cccc2c63)c54)cc1 [Compound 12, reference compound] | – | 10 to 200 µM | – | – | EC50 (HSV-1, strain MacIntyre [4]; Human alphaherpesvirus 1, 10 min, read-out: EC50 (µM) under Blue Light): 0.472 µM; viability at 48 h, 10 µM [5]: 109 to 122%
16 | CCCCCCCCCCCCc1ccc2c3cccc4c(C#Cc5cn([C@@H]6O[C@H](CO)[C@@H](O)[C@@H]6O)c(=O)[nH]c5=O)ccc(c5cccc1c52)c43 [Compound 9c, 5-[9(10)-Dodecylperylen-3-ylethynyl]-arabino-uridine] | completely inactive | > 175 µM | 0.24 µM (≈ 0.165 µg/mL) | 22.5 ± 3.4% | photocytotoxicity to Vero cells (Vero cells): did not increase the cytotoxicity; viability at 48 h [6]: 115 to 128%
17 | Nc1nc2c(ncn2COCCO)c(=O)[nH]1 [acyclovir, reference compound] | – | – | – | – | anti-HSV-1 activity in Vero cells (HSV-1, strain MacIntyre [1]; 50 µM): completely inhibited HSV-1 replication
